Measured values published in patent US7566710B2, “Dual molecules containing a peroxide derivative, synthesis and therapeutic applications thereof” (Centre National de la Racherche Scientifique (C.N.R.S.), priority 2000, dated 2009).
pIC50: −log10 of the molar value. Values joined by “and” are separate entries in the source; they are usually repeats but may differ in a detail not shown here. Identical values can stand only once. “Also recorded” adds a separate entry of the source. Like-named read-outs stand apart in the source and are kept apart here.

Assays:
[1] = system: P. falciparum FcB1-Colombia (chloroquine resistant strain); test: Anti-malarial activity on P. falciparum FcB1-Colombia strain, tritiated hypoxanthine incorporation; assay type: cell-based, Plasmodium falciparum
Experimental: The P. falciparum strains are cultured continuously according to Trager and Jensen's method 5, with the following modifications 6: the parasites are maintained in human red blood cells (O±), diluted to 1% haematocrit in RPMI 1640 medium supplemented with 25 mM Hepes+30 mM NaHCO3 and complemented with 5% AB+ human serum. The parasite populations are synchronised over a 4 hour period by flotation with a gelatine solution, followed by lysis with 5% D-sorbitol 7,8. […]. The anti-malarial activity tests are performed using Desjardins' radioactive micromethod 11. The tests are performed in triplicate, in 96-well microplates, the readings being at 1% haematocrit and 0.5-1% parasitaemia. For each test, the parasites are incubated with decreasing concentrations of drug for either 32 hours and 72 hours (4 wells contain chloroquine diphosphate as a reference). The first dilution of the drug is performed at 10 mg/ml in dimethylsulphoxide and the following dilutions are made with RPMI 1640. The parasite growth is measured with the incorporation of tritiated hypoxanthine compared to incorporation in the absence of drug (taken to be 100%). 12 and the IC50 values are determined graphically by plotting the percentage of inhibition as a function of the drug concentration.

[2] = system: P. falciparum FcM29-Cameroon (highly chloroquine resistant strain); test: Anti-malarial activity on P. falciparum FcM29-Cameroon strain, tritiated hypoxanthine incorporation; assay type: cell-based, Plasmodium falciparum; conditions: for IC50: Plasmodium falciparum
Experimental: (§1) The parasite populations are synchronised over a 4 hour period by flotation with a gelatine solution, followed by lysis with 5% D-sorbitol 7,8. […] The anti-malarial activity tests are performed using Desjardins' radioactive micromethod 11. The tests are performed in triplicate, in 96-well microplates, the readings being at 1% haematocrit and 0.5-1% parasitaemia. For each test, the parasites are incubated with decreasing concentrations of drug for either 32 hours and 72 hours (4 wells contain chloroquine diphosphate as a reference). […] The parasite growth is measured with the incorporation of tritiated hypoxanthine compared to incorporation in the absence of drug (taken to be 100%). 12 and the IC50 values are determined graphically by plotting the percentage of inhibition as a function of the drug concentration.

[3] = system: P. falciparum Nigerian (chloroquine susceptible strain); test: Anti-malarial activity on P. falciparum Nigerian strain, tritiated hypoxanthine incorporation; assay type: cell-based, Plasmodium falciparum
Experimental: as §1

[4] = system: three Plasmodium falciparum strains; test: Anti-malarial activity, summary over the Nigerian, FcB1 and FcM29 strains; assay type: cell-based; conditions: susceptible and resistant strains
Experimental: as §1

[5] = system: P. falciparum in culture; test: In vitro activity on P. falciparum in culture; assay type: cell-based; conditions: Plasmodium falciparum, read-out: LC50
[6] = system: P. vinckei; test: 4 day test in mice infected with P. vinckei; assay type: in vivo; conditions: intraperitoneal route, for 2 months
[7] = system: E. coli GE864; test: Mutagenicity, SOS response (DNA repair induction) in E. coli GE864; assay type: cell-based; conditions: E. coli GE864, 5, 10, 15 and 20 μM; control 3 μM mitomycin C
[8] = Toxicity after administration to healthy mice; conditions: 100 mg/kg/day oral route, three consecutive days
[9] = system: human Plasmodium falciparum isolates; test: Activity on human Plasmodium falciparum isolates; assay type: cell-based
Experimental: Trioxaquine-citrate 4, referred to as DU-1102, was tested on human Plasmodium falciparum isolates, some of which were chloroquine- and/or pyrimethamine-resistant.

[10] = system: P. falciparum FcB1-Colombia (chloroquine resistant strain); conditions: read-out: IC50 for chloroquine, FcB1-Columbia strain, literature refs 9,10; cited from earlier work
[11] = system: P. falciparum FcM29-Cameroon (highly chloroquine resistant strain); conditions: read-out: IC50 for chloroquine, literature refs 9,10; cited from earlier work
[12] = FcB1-Colombia (CQR), 72 hrs, read-out: IC50
[13] = Nigerian (CQS), 32 hrs, read-out: IC50
[14] = FcB1-Colombia (CQR), 32 hrs, read-out: IC50
[15] = Nigerian (CQS), 72 hrs, read-out: IC50

## Clc1ccc2c(NCCNC3CCC4(CC3)OOC3(c5ccccc5)CC(c5ccccc5)=CC3O4)ccnc2c1 (mixture of isomers) [Trioxaquine 3]
[1]; [12]
  pIC50: 8.05
[2]; FcM29-Cameroon (CQR+), 72 hrs, read-out: IC50
  pIC50: 7.74
[3]; Nigerian (CQS), 32 hrs
  IC50: 1 ng/mL
[3]; [13]
  pIC50: 8.74
[4]
  activity compared with chloroquine and the two fragments: significantly greater than the activity of not only chloroquine, but also of each of the two fragments

## Clc1ccc2c(NCCCCNC3CCC4(CC3)OOC3(c5ccccc5)CC(c5ccccc5)=CC3O4)ccnc2c1 (mixture of isomers) [Trioxaquine 9]
[4]
  activity compared with chloroquine and the two fragments: significantly greater than the activity of not only chloroquine, but also of each of the two fragments

## CCN(CC)CCCC(C)Nc1ccnc2cc(Cl)ccc12 (centres unmarked) [Chloroquine diphosphate]
[1]; Plasmodium falciparum, FCB1, 32 h
  IC50: 0.075 mg/L
[1]; Plasmodium falciparum, FCB1, 72 h
  IC50: 0.06 µg/mL and 116 nM
[2]; 32 h
  IC50: 0.1 µg/mL and 194 nM
[2]; 72 h
  IC50: 0.08 µg/mL and 155 nM
[3]; Plasmodium falciparum, 32 h
  IC50: 0.045 µg/mL and 87 nM
[3]; Plasmodium falciparum, 72 h
  IC50: 0.01 µg/mL and 19 nM

## CC(C)C1=CC2OC3(CCC(NCCNc4ccnc5cc(Cl)ccc45)CC3)OOC2(C)CC1.O=C(O)CC(O)(CC(=O)O)C(=O)O.O=C(O)CC(O)(CC(=O)O)C(=O)O (centres unmarked) [DU-1302]
[5]
  LC50: 0.006 µM
[6]
  re-emergence: no observable re-emergence
[7]
  mutagenicity, induction of DNA repair (SOS response): Absence of mutagenicity
[8]
  apparent toxicity: does not show any apparent toxicity

## NCCNc1ccnc2cc(Cl)ccc12 [Quinoline-amine1, 7-chloro-4-[N-(2-aminoethyl)amino]-quinoline]
[1]; Plasmodium falciparum, FcB1-Colombia (CQR), 32 hrs, read-out: IC50
  IC50: 0.035 mg/L
[1]; Plasmodium falciparum, FcB1-Colombia (CQR), 72 hrs, read-out: IC50
  IC50: 0.02 mg/L
[3]; Plasmodium falciparum, Nigerian (CQS), 32 hrs, read-out: IC50
  IC50: 33 ng/mL
[3]; Plasmodium falciparum, Nigerian (CQS), 72 hrs, read-out: IC50
  IC50: 7 ng/mL

## O=C1CCC2(CC1)OOC1(c3ccccc3)CC(c3ccccc3)=CC1O2 (centres unmarked) [Trioxane-ketone 2]
[1]; [14]
  pIC50: 6.95
[1]; [12]
  pIC50: 7.44
[3]; [13]
  pIC50: 6.83
[3]; [15]
  pIC50: 7.35

## Clc1ccc2c(NCCNC3CCC4(CC3)OOC3(c5ccccc5)CC(c5ccccc5)=CC3O4)ccnc2c1.O=C(O)CC(O)(CC(=O)O)C(=O)O.O=C(O)CC(O)(CC(=O)O)C(=O)O (centres unmarked) [Trioxaquine 4]
[1]; FcB1-Colombia (CQR), 32 hrs
  IC50: 0.035 mg/L
[1]; [14]
  pIC50: 7.43
[1]; FcB1-Colombia (CQR), 72 hrs
  IC50: 0.02 mg/L
[1]; [12]
  pIC50: 7.68
[3]; Nigerian (CQS), 32 hrs
  IC50: 33 ng/mL
[3]; [13]
  pIC50: 7.46
[3]; Nigerian (CQS), 72 hrs
  IC50: 7 ng/mL
[3]; [15]
  pIC50: 8.10
[4]
  activity compared with chloroquine and the two fragments: significantly greater than the activity of not only chloroquine, but also of each of the two fragments
[9]
  IC50 geometric mean: 0.041 mg/L
[9]; listed as DU-1102
  relation of activity to susceptibility or resistance to other anti-malarial agents (chloroquine, pyrimethamine): independent of their susceptibility or their resistance; also recorded: no correlation
[9]; read-out: IC50 geometric mean
  pIC50: 7.37

## CCN(CC)CCCC(C)Nc1ccnc2cc(Cl)ccc12 (centres unmarked) [chloroquine]
[10]
  pIC50: < 7.00
[11]
  pIC50: < 7.00
